Measurements published in article PMC4335872, “Pharmacokinetic-Pharmacodynamic Analysis of Spiroindolone Analogs and KAE609 in a Murine Malaria Model” (Antimicrobial Agents and Chemotherapy, 2015).
Values after ≈ are worked out from the molar mass of the structure shown. Values joined by “and” are separate entries in the source; they are usually repeats but may differ in a detail not shown here. Identical values can stand only once. Like-named read-outs stand apart in the source and are kept apart here.

What was measured:
[1] = HT-equilibrium solubility; format: physicochemical; conditions: pH 6.8, HT-equilibrium solubility
From the text: (§1) page 5: Running title: PreclinicalPK -PD of antimalarials 73 to high through put form at using in- house standard assa y protocols that are described in the 74 literature. […] 81 82 83 84 85 86 87 88 89 90 91 92 93 94 95 96 97 98 5

[2] = RBC to plasma partitioning; format: in vitro ADME; conditions: mean from 1 µM & 10 µM
From the text: as §1

P. falciparum NF54 = test: In vitro [3H]hypoxanthine incorporation assay, P. falciparum NF54; format: cell-based, Plasmodium falciparum; conditions: for IC50: 16 h + 8 h incubation, read-out: IC50 (mean ± SD) for P. falciparum NF54 (n = 3)
Procedure: Human erythrocytes served as the host cells. In vitro antimalarial activity was measured using the [^3H]hypoxanthine incorporation assay ([36]) with strain NF54 of P. falciparum (obtained from Hoffmann-LaRoche Ltd.). The compounds were dissolved in dimethyl sulfoxide (DMSO) at a concentration of 10 mM, diluted in hypoxanthine-free culture medium, and titrated in duplicate over a 64-fold range in 96-well plates. […] The parasites were harvested onto glass fiber filters, and radioactivity was measured using a BetaPlate liquid scintillation counter (Wallac, Zurich, Switzerland). All assays were repeated at least three times. The results were recorded and expressed as a percentage of the untreated controls. […] In addition, for the PK-PD analysis of KAE609, an IC99 value was determined by transforming the data from a scintillation counter (Anscombe transformation) to account for Poissonian measurement error. […] Each of the three replicates was performed on a distinct 96-well plate. This has been accounted for in the fitting procedure by means of a Bayesian hierarchical model. The software used for parameter inference was Stan ([37]).

[3] = Intrinsic clearance in mouse liver microsomes; format: in vitro ADME; conditions: per mg protein
From the text: (§2) page 5: Running title: PreclinicalPK -PD of antimalarials 73 to high through put form at using in- house standard assa y protocols that are described in the 74 literature. 75 (a)HT-Equilibrium solubilit y at pH 6.8( 1); (b)Parallel Artificial Membrane P ermeability Assa y 76 expressed in % fraction absorbed (FA) ( 2,3 ); (c)Apparent permeability from apical to […] 78 tested; (d)intrinsic clearance in mouse liver micro somes ex pressed as µ L/ min/mg protein, in 79 the presen ce of liver enzym es ( 6); (e)Mous e plasm a protein binding using rapid equilibrium […] 81 82 83 84 85 86 87 88 89 90 91 92 93 94 95 96 97 98 5

[4] = system: P. berghei GFP ANKA PbGFPCON; test: In vitro (ex vivo) P. berghei maturation assay; format: cell-based, Plasmodium berghei
Procedure: For the in vitro (ex vivo) P. berghei maturation assays ([38]), heparinized blood from infected mice (P. berghei GFP ANKA malaria strain PbGFPCON, a donation from A. P. Waters and C. J. Janse, Leiden University, Leiden, the Netherlands) ([39]) was washed with 9 ml of hypoxanthine-free culture medium and diluted with hypoxanthine-free culture medium and red blood cells (RBCs) from uninfected mice to a hematocrit of 5% and a parasitemia of 0.3%. Serial compound dilutions were prepared in DMSO and distributed as described above. The infected erythrocytes (0.3% final parasitemia and 2.5% final hematocrit) were added into the wells. After the plates were incubated for 16 h, 0.25 μCi of [^3H]hypoxanthine was added per well, and the plates were incubated for an additional 8 h. The parasites were harvested, and the in vitro (ex vivo) P. berghei IC50, IC90, and IC99 values were determined as described above.

[5] = Parallel artificial membrane permeability assay (PAMPA); format: in vitro ADME; conditions: % fraction absorbed
From the text: as §2

Caco-2 permeability = format: in vitro ADME; conditions: human, Caco-2; apical to basolateral
[6] = 16 h + 8 h incubation, read-out: IC50 (mean ± SD) for P. berghei GFP ANKA PbGFPCON (n = 3)

C[C@H]1Cc2c([nH]c3ccc(Cl)cc23)[C@@]2(N1)C(=O)Nc1ccc(Cl)cc12 [(+)-2]
Solubility [1]: 22 µM (≈ 8.19 µg/mL)
RBC to Plasma Ratio [2]: 0.77
IC50 (P. falciparum NF54): 5.6 ± 0.9 nM
Hepatic CLint in mouse liver microsomes [3]: 92 µL/min/mg
IC50 [4, 6]: 75 ± 32 nM

C[C@H]1Cc2c([nH]c3cc(Cl)ccc23)[C@@]2(N1)C(=O)Nc1ccc(Cl)cc12 [(+)-3]
Solubility [1]: 8 µM (≈ 2.98 µg/mL)
RBC to Plasma Ratio [2]: 0.93
IC50 (P. falciparum NF54): 5.6 ± 0.7 nM
Hepatic CLint in mouse liver microsomes [3]: 35 µL/min/mg
IC50 [4, 6]: 140 ± 54 nM

C[C@H]1Cc2c([nH]c3ccc(F)cc23)[C@@]2(N1)C(=O)Nc1ccc(Cl)cc12 [(+)-4]
Solubility [1]: 137 µM (≈ 48.7 µg/mL)
RBC to Plasma Ratio [2]: 0.62
IC50 (P. falciparum NF54): 5.9 ± 0.9 nM
PAMPA %FA [5]: 97%
Hepatic CLint in mouse liver microsomes [3]: 330 µL/min/mg
IC50 [4, 6]: 104 ± 53 nM

C[C@H]1Cc2c([nH]c3cc(F)ccc23)[C@@]2(N1)C(=O)Nc1ccc(Cl)cc12 [(+)-5]
Solubility [1]: 131 µM (≈ 46.6 µg/mL)
RBC to Plasma Ratio [2]: 1.18
IC50 (P. falciparum NF54): 4.3 ± 0.4 nM
Hepatic CLint in mouse liver microsomes [3]: 26 µL/min/mg
IC50 [4, 6]: 88 ± 26 nM

C[C@H]1Cc2c([nH]c3cc(F)c(F)cc23)[C@@]2(N1)C(=O)Nc1ccc(Cl)cc12 [(+)-6]
Solubility [1]: 169 µM (≈ 63.2 µg/mL)
RBC to Plasma Ratio [2]: 1.12
IC50 (P. falciparum NF54): 0.33 ± 0.06 nM
Hepatic CLint in mouse liver microsomes [3]: 41 µL/min/mg
IC50 [4, 6]: 7.5 ± 2.5 nM

C[C@H]1Cc2c([nH]c3cc(Cl)c(F)cc23)[C@@]2(N1)C(=O)Nc1ccc(Cl)cc12 [(+)-7 (KAE609)]
Solubility ([1]; aqueous buffer, thermodynamic from solid): 39 µM (≈ 15.2 µg/mL)
Threshold (TRE), 2 × P. falciparum IC99 (P. falciparum NF54): 1 ng/mL
IC50 (P. falciparum NF54; Plasmodium falciparum, NF54): 1.2 ± 0.2 nM
microsomal CLint ([3]; mouse, liver microsomes, read-out: Hepatic CLint in mouse liver microsomes): 28 µL/min/mg
Papp A→B (Caco-2 permeability): 1.69 ×10⁻⁶ cm/s
Threshold (TRE), 2× the P. berghei IC99 [4]: 123 nM and 48 ng/ml
IC50 ([4]; Plasmodium berghei, read-out: IC50 against P. berghei in vitro): 0.01 µg/mL
IC50 ([4]; Plasmodium berghei, 16 h + 8 h incubation, read-out: IC50 (mean ± SD) for P. berghei GFP ANKA PbGFPCON (n = 3)): 26 ± 14 nM
IC99 in the ex vivo P. berghei maturation assay ([4]; four-parametric logistic fit, Bayesian hierarchical model): 61.6 nM

C[C@@H]1Cc2c([nH]c3cc(F)c(F)cc23)[C@]2(N1)C(=O)Nc1ccc(Cl)cc12 [(−)-6]
Solubility [1]: 112 µM (≈ 41.9 µg/mL)
RBC to Plasma Ratio [2]: 0.81
In vitro activity against P. falciparum (P. falciparum NF54): submicromolar
IC50 (P. falciparum NF54): 105 ± 20 nM
PAMPA %FA [5]: 97%
Hepatic CLint in mouse liver microsomes [3]: 36 µL/min/mg
IC50 [4, 6]: 2850 nM

C[C@@H]1Cc2c([nH]c3cc(Cl)c(F)cc23)[C@]2(N1)C(=O)Nc1ccc(Cl)cc12 [(−)-7]
Solubility [1]: 35 µM (≈ 13.7 µg/mL)
RBC to Plasma Ratio [2]: 0.52
In vitro activity against P. falciparum (P. falciparum NF54): submicromolar
IC50 (P. falciparum NF54): 210 ± 19 nM
Hepatic CLint in mouse liver microsomes [3]: 21 µL/min/mg
IC50 [4, 6]: 4910 nM
